According to patent EP0831826B1, “PHARMACEUTICAL COMPOSITION COMPRISING A PROTEINASE INHIBITOR AND A MONOGLYCERIDE” (F. HOFFMANN-LA ROCHE AG, priority 1995, dated 1996):
≈ marks a conversion by molar mass, not a printed value. Where a name gives a salt, the structure may show the parent alone. Read-outs that look alike come from different tables or passages of the source.

Key:
physchem = details: hcl, pH 1.1, solubility

Compound | solubility (hcl, pH 1.1) | solubility (phosphate buffer, pH 5.4) | solubility (water) | solubility (physchem)
CC(C)(C)NC(=O)[C@@H]1C[C@@H]2CCCC[C@@H]2CN1C[C@@H](O)[C@H](Cc1ccccc1)NC(=O)[C@H](CC(N)=O)NC(=O)c1ccc2ccccc2n1 [Compound A, N-tert.-butyl-decahydro-2-[2(R)-hydroxy-4-phenyl-3(S)-[[N-(2-quinolylcarbonyl)-L-asparaginyl]amino]butyl]-(4aS,8aS)-isoquinoline-3(S)-carboxamide] | 50 µg/mL (≈ 74.5 µM) | < 10 µg/mL | 30 µg/mL (≈ 44.7 µM) | 
CC(C)(C)NC(=O)[C@@H]1C[C@@H]2CCCC[C@@H]2CN1C[C@@H](O)[C@H](Cc1ccccc1)NC(=O)[C@H](CC(N)=O)NC(=O)c1ccc2ccccc2n1 [Compound A-mesylate salt] |  | 2320 µg/mL | 2550 µg/mL | 60 µg/mL
